PMC8388771, “Cationic Peptidomimetic Amphiphiles Having a N-Aryl- or N-Naphthyl-1,2,3-Triazole Core Structure Targeting Clostridioides (Clostridium) difficile: Synthesis, Antibacterial Evaluation, and an In Vivo C. difficile Infection Model” (Antibiotics, 2021)
In brackets after ≈: the same amount, converted by molar mass. Like-named read-outs stand apart in the source and are kept apart here.

Tests used:
[1] = tested on: C. difficile ATCC 700057; assay: Primary MIC assay, C. difficile ATCC 700057; type: cell-based, Clostridioides difficile; conditions: Clostridioides difficile, ATCC700057; Table 1; read-out: MIC C. difficile ATCC 700057
Procedure: (§1) The N-arytriazole and N-naphthyltriazole peptidomimetics were subjected to antimicrobial screening. […] Vancomycin, colistin, fluconazole, and tamoxifen were used as positive controls (see Table 1 for details).
(§2) Primary screening (Gram-positive bacteria). Primary MIC assays were performed as described by the Clinical and Laboratory Standards Institute for aerobic and anaerobic bacteria. MIC values for vancomycin were within acceptable QC ranges.

[2] = tested on: C. difficile 132 (RT027); assay: Primary MIC assay, C. difficile 132 (RT027); type: cell-based, Clostridioides difficile; conditions: Clostridioides difficile; Table 1; read-out: MIC C. difficile 132 (RT027)
Procedure: as §1, §2

[3] = tested on: S. aureus ATCC 29213; assay: Primary MIC assay, S. aureus ATCC 29213; type: cell-based; conditions: Staphylococcus aureus, ATCC29213; Table 1; read-out: MIC S. aureus ATCC 29213
Procedure: as §1, §2

[4] = tested on: S. aureus NCTC 10442; assay: Primary MIC assay, S. aureus NCTC 10442 (MRSA); type: cell-based; conditions: Staphylococcus aureus, MRSA
Procedure: as §1, §2

[5] = tested on: E. faecalis ATCC 29212; assay: Primary MIC assay, E. faecalis ATCC 29212; type: cell-based, Enterococcus faecalis; conditions: Enterococcus faecalis, ATCC29212; Table 1; read-out: MIC E. faecalis ATCC 29212
Procedure: as §1, §2

[6] = tested on: S. pneumoniae ATCC 49619; assay: Primary MIC assay, S. pneumoniae ATCC 49619; type: cell-based, Streptococcus pneumoniae; conditions: Streptococcus pneumoniae, ATCC49619; Table 1; read-out: MIC S. pneumoniae ATCC 49619
Procedure: as §1, §2

[7] = tested on: E. coli ATCC 25922; assay: Primary MIC assay, E. coli ATCC 25922; type: cell-based; conditions: Escherichia coli, ATCC25922; Table 1; read-out: MIC E. coli ATCC 25922
[8] = Cytotoxicity (CC50) assay by CO-ADD; type: cell-based, human; conditions: human, HEK293 cells (ATCC CRL-1573); Table 1; cytotoxicity on HEK293 cells, tested at ≤32 µg/mL
Description: as §1
(§3) Secondary screening (MRSA and Gram-negative bacteria) and cytotoxicity assay–performed by the Community for Open Antimicrobial Drug Discovery (CO-ADD). Samples were provided to CO-ADD [29] for antimicrobial screening by whole cell growth inhibition assays.
Cytotoxicity Assay. These were performed as described previously.

[9] = tested on: human erythrocytes; assay: Hemolysis assay, HC50 determination; type: cell-based
Procedure: Hemolysis assay (human erythrocytes)–HC50 determination. These were performed as described previously.

[10] = tested on: S. aureus ATCC 43300; assay: CO-ADD MIC assay, S. aureus ATCC 43300 (MRSA); type: cell-based; conditions: Staphylococcus aureus, MRSA, read-out: MIC S. aureus ATCC 43300
Description: as §1, §3
(§4) Bacterial Inhibition–MIC Assay. These were performed as described previously.

[11] = tested on: P. aeruginosa ATCC 27853; assay: CO-ADD MIC assay, P. aeruginosa ATCC 27853; type: cell-based; conditions: Pseudomonas aeruginosa, ATCC27853, Table S1
Description: as §1, §3, §4

[12] = tested on: K. pneumoniae ATCC 700603; assay: CO-ADD MIC assay, K. pneumoniae ATCC 700603; type: cell-based; conditions: Klebsiella pneumoniae, ATCC700603, Table S1, multi-drug resistant
Description: as §1, §3, §4

[13] = tested on: A. baumannii ATCC 19606; assay: CO-ADD MIC assay, A. baumannii ATCC 19606; type: cell-based; conditions: Acinetobacter baumannii, ATCC19606, Table S1
Description: as §1, §3, §4

[14] = tested on: E. coli ATCC 25922; assay: CO-ADD MIC assay, E. coli ATCC 25922; type: cell-based; conditions: Escherichia coli, ATCC25922, Table S1
Description: as §1, §3, §4

[15] = tested on: C. albicans ATCC 90028; assay: CO-ADD MIC assay, C. albicans ATCC 90028; type: cell-based; conditions: Candida albicans, ATCC90028, Table S1
Description: as §1, §3

[16] = tested on: Cryptococcus neoformans var. grubii ATCC 208821; assay: CO-ADD MIC assay, C. neoformans var. grubii ATCC 208821; type: cell-based; conditions: for MIC: Cryptococcus neoformans, ATCC208821, Table S1; for MIC C. neoformans var. grubii ATCC 208821: Table S1
Description: as §1, §3

[17] = Table 1, read-out: MIC S. aureus NCTC 10442
[18] = Table 1, lysis of human erythrocytes
[19] = Table S1, footnote says lysis of sheep erythrocytes

Row | SMILES | MIC [1] [µg/mL] | MIC [2] [µg/mL] | MIC [3] [µg/mL] | MIC [4, 17] [µg/mL] | MIC [5] [µg/mL] | MIC [6] [µg/mL] | MIC [7] [µg/mL] | CC50 [8] [µg/mL] | HC50 [9, 18] [µg/mL] | HC50 [9, 19] [µg/mL] | MIC ([10]; Table S1, CO-ADD) [µg/mL] | MIC [11] [µg/mL] | MIC [12] [µg/mL] | MIC [13] [µg/mL] | MIC [14] [µg/mL] | MIC [15] [µg/mL] | MIC [16] [µg/mL] | MIC C. neoformans var. grubii ATCC 208821 [16] [µg/mL] | further results
1 | CC(C)CCc1cnnn1-c1ccccc1OCC(=O)N[C@H](CCCCN)C(=O)N[C@H](CCCNC(=N)N)Cn1cc(CC2CCCCC2)nn1 [Compound 38] | 128 (≈ 181 µM) | > 128 | 128 (≈ 181 µM) | 128 (≈ 181 µM) | > 128 | 128 (≈ 181 µM) | > 128 | 32 (≈ 45.3 µM) | 32 | 32 | 32 (≈ 45.3 µM) | > 32 | > 32 | > 32 | > 32 | > 32 | 16 (≈ 22.6 µM) | – | –
2 | CC(C)CCc1cnnn1-c1ccccc1OCC(=O)N[C@H](CCCCN)C(=O)N[C@H](CCCNC(=N)N)Cn1cc(Cc2ccccc2)nn1.Cl.Cl [Compound 39] | 64 | 32 | 32 | 64 | 32 | 16 | 128 | > 32 | >32 | > 32 | 32 | > 32 | > 32 | > 32 | > 32 | 16 | 16 | – | –
3 | CC(C)CCc1cn(-c2c(OCC(=O)N[C@H](CCCCN)C(=O)N[C@H](CCCNC(=N)N)Cn3cc(CC4CCCCC4)nn3)ccc3ccccc23)nn1 [Compound 41] | 16 (≈ 21.1 µM) | 16 (≈ 21.1 µM) | 8 (≈ 10.6 µM) | 8 (≈ 10.6 µM) | 8 (≈ 10.6 µM) | 16 (≈ 21.1 µM) | 128 (≈ 169 µM) | 16 (≈ 21.1 µM) | 32 | 32 | 4 (≈ 5.28 µM) | 16 (≈ 21.1 µM) | 32 (≈ 42.3 µM) | 32 (≈ 42.3 µM) | 32 (≈ 42.3 µM) | 32 (≈ 42.3 µM) | 4 to 8 (≈ 5.28 to 10.6 µM) | 4 (≈ 5.28 µM) | MIC ([4]; MRSA / NCTC 10442 / NCTC 104422, Table 2, read-out: MIC S. aureus NCTC 104422): 8 µg/mL (≈ 10.6 µM); HC50 ([9]; Table 2, footnote says lysis of sheep erythrocytes): 32 µg/mL; MIC ([10]; Table 2): 4 µg/mL (≈ 5.28 µM)
4 | CC(C)CCc1cnnn1-c1c(OCC(=O)N[C@H](CCCCN)C(=O)N[C@H](CCCNC(=N)N)Cn2cc(C3CCCCC3)nn2)ccc2ccccc12.Cl.Cl [Compound 43] | 128 | 128 | 16 | 16 | 64 | 4 | 64 | > 32 | >32 | > 32 | 8 | 32 | > 32 | 32 | 32 | > 32 | 4 to 8 | 8 | –
5 | CC(C)CCc1cnnn1-c1c(OCC(=O)N[C@H](CCCCN)C(=O)N[C@H](CCCNC(=N)N)Cn2cc(CC3CCCCC3)nn2)ccc2ccccc12 [Compound 44] | 32 (≈ 42.3 µM) | 32 (≈ 42.3 µM) | 8 (≈ 10.6 µM) | 4 (≈ 5.28 µM) | 16 (≈ 21.1 µM) | 4 (≈ 5.28 µM) | 64 (≈ 84.5 µM) | > 32 | >32 | > 32 | 8 (≈ 10.6 µM) | 32 (≈ 42.3 µM) | > 32 | 32 (≈ 42.3 µM) | 32 (≈ 42.3 µM) | 32 (≈ 42.3 µM) | 4 to 8 (≈ 5.28 to 10.6 µM) | 8 (≈ 10.6 µM) | –
6 | CC(C)CCOc1ccccc1-n1nncc1COCC(=O)N[C@H](CCCCN)C(=O)N[C@H](CCCNC(=N)N)Cn1cc(C2CCCCC2)nn1 [Compound 48] | > 32 | > 32 | > 32 | > 32 | > 32 | > 32 | > 32 | > 32 | 24.5 | 24.5 | > 32 | > 32 | > 32 | > 32 | > 32 | > 32 | > 32 | – | –
7 | CC(C)CCOc1ccccc1-n1nncc1COCC(=O)N[C@H](CCCCN)C(=O)N[C@H](CCCNC(=N)N)Cn1cc(CC2CCCCC2)nn1 [Compound 49] | > 32 | > 32 | 32 (≈ 43.4 µM) | > 32 | > 32 | > 32 | > 32 | > 32 | 17.1 | 17.1 | 32 (≈ 43.4 µM) | > 32 | > 32 | > 32 | > 32 | > 32 | > 32 | – | –
8 | CC(C)CCOc1ccccc1-n1nncc1COCC(=O)N[C@H](CCCCN)C(=O)N[C@H](CCCNC(=N)N)Cn1cc(Cc2ccccc2)nn1 [Compound 50] | > 32 | > 32 | 32 (≈ 43.8 µM) | > 32 | > 32 | > 32 | > 32 | > 32 | 19.8 | 19.8 | 32 (≈ 43.8 µM) | > 32 | > 32 | > 32 | > 32 | > 32 | > 32 | – | –
